Where two headings read alike, the source gives them in different places. Bounds are passed on as bounds.

For assay [1], the target named is BACE 1 (Beta Secretase enzyme) (Homo sapiens (Human), UniProt P56817). The assay can be described thus: In vitro enzymatic BACE FRET assay. The class given is biochemical. The following applies: enzyme 0.2 nM, FRET substrate 50 nM, pH 4.2. As for the experimental part: In Vitro Enzymatic BACE FRET (Fluorescence Resonance Energy Transfer) Assay (Enzyme Assay Data in the Example Table I)
The assay buffer used in this screen is 0.05 M acetate, pH 4.2, 10% DMSO final, 100 uM genapol (which is a nonionic detergent, below its Critical Micelle Concentration). […] This assay is effectively started by the addition of FRET substrate (50 nM) and the combination is incubated for one hour. The FRET assay is terminated with by addition of Tris buffer, which raises the pH to neutrality, and the fluorescence is determined. The FRET substrate is a peptide with commercially available fluorophore and quencher, on opposite sides of the BACE cleavage site. Proteolytic cleavage of the FRET substrate releases quenching of fluorescence (excitation […] and […]).

Assay [2] has as its system Aβ40 in conditioned medium of cells expressing amyloid precursor protein. Nature of the assay: In vitro BACE cell-based assay (HEK cell assay), Aβ40 sandwich ELISA. The following applies: Aβ40 in supernatant after 24 h incubation. As for the experimental part:
In Vitro BACE Cell-Based Assay
The cell-based assay measures inhibition or reduction of Aβ40 in conditioned medium of test compound treated cells expressing amyloid precursor protein.
Cells stably expressing Amyloid Precursor Protein (APP) were plated at a density of 40K cells/well in 96 well plates (Costar). The cells were cultivated for 24 hours at 37° C. and 5% CO2 in DMEM supplemented with 10% FBS. The test compounds were then added to cells in 10-point dose response concentrations with the starting concentration being either 100 μM or 10 μM. The compounds were diluted from stock solutions in DMSO and the final DMSO concentration of the test compounds on cells was 0.1%. After 24 h of incubation with the test compounds the supernatant conditioned media was collected and the Aβ 40 levels were determined using a sandwich ELISA. The IC50 of the compound was calculated from the percent of control or percent inhibition of Aβ 40 as a function of the concentration of the test compound.
The sandwich ELISA to detect Aβ 40 was performed in 96 well microtiter plates, which were pre-treated with goat anti-rabbit IgG (Pierce). The capture and detecting antibody pair that were used to detect Aβ 40 from cell supernatants were affinity purified pAb40 (Biosource) and biotinylated 6E10 (Signet Labs Inc.), respectively. The optimal concentration for the pAb40 antibody was 3 μg/ml in Superblock/TBS (Pierce) that was supplemented with 0.05% Tween 20 (Sigma).
Cellular supernatants were incubated with the capture antibody for 3 h at 4° C., followed by 3 wash steps in TBS-tween (0.05%). The detecting antibody incubation was for 2 h at 4° C., again followed by the wash steps as described previously. The final readout of the ELISA is Time-Resolved Fluorescence (counts per minute) using Delfia reagents Streptavidin-Europium and Enhancement solutions (Perkin Elmer) and the Victor 2 multilabel counter (Perkin Elmer).

Where [3] appears, read: average IC50, read-out: BACE 1 FRET assay.
Where [4] appears, read: Homo sapiens, HEK293, 24 h, average IC50, read-out: HEK cell assay.
[5] abbreviates: class symbols, read-out: BACE 1 FRET assay (IC50 class).
[6] abbreviates: Homo sapiens, HEK293, 24 h, class symbols, read-out: HEK cell assay (IC50 class).

Chain of BACE 1 (Beta Secretase enzyme) (P56817 46-501): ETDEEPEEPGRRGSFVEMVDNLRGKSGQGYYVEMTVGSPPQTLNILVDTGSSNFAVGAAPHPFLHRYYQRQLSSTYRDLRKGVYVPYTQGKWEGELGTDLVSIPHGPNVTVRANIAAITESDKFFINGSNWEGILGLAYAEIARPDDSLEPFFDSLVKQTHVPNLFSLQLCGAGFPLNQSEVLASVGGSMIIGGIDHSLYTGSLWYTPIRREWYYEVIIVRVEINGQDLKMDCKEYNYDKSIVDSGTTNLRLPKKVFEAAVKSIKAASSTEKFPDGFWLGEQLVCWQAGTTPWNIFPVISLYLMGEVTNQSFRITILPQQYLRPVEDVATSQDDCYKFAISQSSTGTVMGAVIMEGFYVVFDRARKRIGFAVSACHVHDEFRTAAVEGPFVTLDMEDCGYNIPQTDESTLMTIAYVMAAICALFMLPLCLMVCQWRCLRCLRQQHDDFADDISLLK

Regarding `CN1C(=O)C[C@@]2(N=C1N)c1cc(-c3cccnc3F)ccc1Oc1cnc(C3=CCOCC3)cc12` [Example 23, (R)-2′-amino-3-(3,6-dihydro-2H-pyran-4-yl)-7-(2-fluoropyridin-3-yl)-1′-methyl-1′H-spiro[chromeno[2,3-c]pyridine-5,4′-pyrimidin]-6′(5′H)-one], the IC50 in assay [1] (setting [3]) worked out at 1750 nM; in assay [2] (setting [4]) it was 1680 nM. For the compound `CN1C(=O)CC2(N=C1N)c1cc(-c3cccnc3F)ccc1Oc1c2cc(-c2cccnc2F)nc1F` (stereo not shown) [Example 13, 2′-amino-1-fluoro-3,7-bis(2-fluoropyridin-3-yl)-1′-methyl-1′H-spiro[chromeno[2,3-c]pyridine-5,4′-pyrimidin]-6′(5′H)-one], the IC50 is 22.8 nM in assay [1] (setting [3]) and 154 nM in assay [2] (setting [4]). On the same counts, the results for `CN1C(=O)C[C@]2(N=C1N)c1cc(-c3cccnc3F)ccc1Oc1c2cc(C2=CC(C)(C)OCC2)nc1F` [Example 26, (S)-2′-amino-3-(6,6-dimethyl-3,6-dihydro-2H-pyran-4-yl)-1-fluoro-7-(2-fluoropyridin-3-yl)-1′-methyl-1′H-spiro[chromeno[2,3-c]pyridine-5,4′-pyrimidin]-6′(5′H)-one] are 0.6 nM and 5 nM. As to `CN1C(=O)C[C@]2(N=C1N)c1cc(-c3cccnc3F)ccc1Oc1c2cc(-c2ccnc(F)c2)nc1F` [Example 19, (S)-2′-amino-1-fluoro-7-(2-fluoropyridin-3-yl)-3-(2-fluoropyridin-4-yl)-1′-methyl-1′H-spiro[chromeno[2,3-c]pyridine-5,4′-pyrimidin]-6′(5′H)-one], the IC50 in assay [1] (setting [3]) was 1.4 nM; in assay [2] (setting [4]) it was 82 nM. On the same counts, the results for `CN1C(=O)C[C@]2(N=C1N)c1cc(-c3cccnc3F)ccc1Oc1c2cc(C2=CCCOC2)nc1F` [Example 17, (S)-2′-amino-3-(5,6-dihydro-2H-pyran-3-yl)-1-fluoro-7-(2-fluoropyridin-3-yl)-1′-methyl-1′H-spiro[chromeno[2,3-c]pyridine-5,4′-pyrimidin]-6′(5′H)-one] are 2.8 nM and 223 nM. Consider `COc1ccc2c(c1)[C@]1(N=C(N)N(C)C1=O)c1cc(-c3ccc(C)cc3)cc(F)c1O2` (mixture of isomers) [Example 29, (4R)-2-amino-4′-fluoro-7′-methoxy-1-methyl-2′-(4-methylphenyl)spiro[imidazole-4,9′-xanthen]-5(1H)-one and (4S)-2-amino-4′-fluoro-7′-methoxy-1-methyl-2′-(4-methylphenyl)spiro[imidazole-4,9′-xanthen]-5(1H)-one], for which the IC50 in assay [1] (setting [3]) amounted to 13.6 nM; in assay [2] (setting [4]), 1970 nM. In the same order, the values of `CN1C(=O)C[C@]2(N=C1N)c1cc(-c3cccnc3F)ccc1Oc1cnc(C3=CCCOC3)cc12` [Example 24, (S)-2′-amino-3-(5,6-dihydro-2H-pyran-3-yl)-7-(2-fluoropyridin-3-yl)-1′-methyl-1′H-spiro[chromeno[2,3-c]pyridine-5,4′-pyrimidin]-6′(5′H)-one] are 12.1 nM and 52.3 nM.

On to `Cc1ccc(-c2cc(F)c3c(c2)[C@]2(N=C(N)N(C)C2=O)c2cc(-c4cccc(Cl)c4)ccc2O3)cc1` (stereo in doubt) [Example 33, (4R)-2-amino-7′-(3-chlorophenyl)-4′-fluoro-1-methyl-2′-(4-methylphenyl)spiro[imidazole-4,9′-xanthen]-5(1H)-one, (4S)-2-amino-7′-(3-chlorophenyl)-4′-fluoro-1-methyl-2′-(4-methylphenyl)spiro[imidazole-4,9′-xanthen]-5(1H)-one], for which the IC50 amounted to 4.1 nM in assay [1] (setting [3]) and 237 nM in assay [2] (average IC50, read-out: HEK cell assay).

Turning to `CC#Cc1cncc(-c2ccc3c(c2)[C@]2(N=C(N)N(C)C2=O)c2cc(C4=CCOCC4)cc(F)c2O3)c1` (stereo in doubt) [Example 30, (4R)-2-amino-2′-(3,6-dihydro-2H-pyran-4-yl)-4′-fluoro-1-methyl-7′-(5-(1-propyn-1-yl)-3-pyridinyl)spiro[imidazole-4,9′-xanthen]-5(1H)-one, (4S)-2-amino-2′-(3,6-dihydro-2H-pyran-4-yl)-4′-fluoro-1-methyl-7′-(5-(1-propyn-1-yl)-3-pyridinyl)spiro[imidazole-4,9′-xanthen]-5(1H)-one], the IC50 amounted to 0.9 nM in assay [1] (setting [3]) and 13.7 nM in assay [2] (setting [4]). For the compound `CN1C(=O)CC2(N=C1N)c1cc(-c3cccnc3F)ccc1Oc1c2cc(Cl)nc1F` (stereo not shown) [Example 12, 2′-amino-3-chloro-1-fluoro-7-(2-fluoropyridin-3-yl)-1′-methyl-1′H-spiro[chromeno[2,3-c]pyridine-5,4′-pyrimidin]-6′(5′H)-one], the results for the IC50 in assay [1] (setting [5]) and in assay [2] (setting [6]) were 100 to 1000 nM and over 1000 nM, respectively. As to `CN1C(=O)[C@]2(N=C1N)c1cc(C3=CCOCC3)ccc1Oc1ccc(-c3cccnc3F)cc12` (stereo in doubt) [Example 9, 2-amino-2′-(3,6-dihydro-2H-pyran-4-yl)-7′-(2-fluoropyridin-3-yl)-1-methylspiro[imidazole-4,9′-xanthen]-5(1H)-one], the IC50 turned out to be 0.9 nM in assay [1] (setting [3]) and 3.6 nM in assay [2] (setting [4]). For the compound `CN1C(=O)CC2(N=C1N)c1cc(Br)ccc1Oc1c2cc(Cl)nc1F` (stereo not shown) [Example 11, 2′-amino-7-bromo-3-chloro-1-fluoro-1′-methyl-1′H-spiro[chromeno[2,3-c]pyridine-5,4′-pyrimidin]-6′(5′H)-one], the IC50 in assay [1] (setting [5]) and in assay [2] (setting [6]) was over 1000 nM each time. For the compound `CN1C(=O)CC2(N=C1N)c1cc(-c3cccnc3F)ccc1Oc1c2cc(-c2ccnc(F)c2)nc1F` (stereo not shown) [Example 18, 2′-amino-1-fluoro-7-(2-fluoropyridin-3-yl)-3-(2-fluoropyridin-4-yl)-1′-methyl-1′H-spiro[chromeno[2,3-c]pyridine-5,4′-pyrimidin]-6′(5′H)-one], the IC50 in assay [1] (setting [3]) turned out to be 2.4 nM; in assay [2] (setting [4]), 71.6 nM. On the same counts, the results for `CC#Cc1cncc(-c2ccc3c(c2)[C@@]2(N=C(N)N(C)C2=O)c2cc(C4=CCOCC4)cc(F)c2O3)c1` [Example 31, (4R)-2-amino-2′-(3,6-dihydro-2H-pyran-4-yl)-4′-fluoro-1-methyl-7′-(5-(1-propyn-1-yl)-3-pyridinyl)spiro[imidazole-4,9′-xanthen]-5(1H)-one] are 179 nM and 4410 nM.

Turning to `CN1C(=O)C[C@]2(N=C1N)c1cc(-c3cccnc3F)ccc1Oc1c2cc(Cl)nc1F` [Example 15, (S)-2′-amino-3-chloro-1-fluoro-7-(2-fluoropyridin-3-yl)-1′-methyl-1′H-spiro[chromeno[2,3-c]pyridine-5,4′-pyrimidin]-6′(5′H)-one], the figures for the IC50 in assay [1] (setting [3]) and in assay [2] (setting [4]) were 33.2 nM and 643 nM, respectively. `CN1C(=O)C[C@@]2(N=C1N)c1cc(-c3cccnc3F)ccc1Oc1cnc(-c3ccnc(F)c3)cc12` [Example 21-A, (R)-7-(2-Fluoropyridin-3-yl)-3-(2-fluoropyridin-4-yl)-2′-imino-1′-methyl-2′,3′-dihydro-1′H-spiro[chromeno[2,3-c]pyridine-5,4′-pyrimidin]-6′(5′H)-one]: the IC50 in assay [2] (setting [4]) was 2380 nM.

Regarding `CN1C(=O)[C@@]2(N=C1N)c1cc(-c3cccnc3F)ccc1Oc1c(F)cc(-c3ccnc(F)c3)cc12` [Example 38, (4R)-2-amino-4′-fluoro-7′-(2-fluoro-3-pyridinyl)-2′-(2-fluoro-4-pyridinyl)-1-methylspiro[imidazole-4,9′-xanthen]-5(1H)-one], the IC50 in assay [2] (setting [4]) came out at 290 nM. With `CN1C(=O)C[C@]2(N=C1N)c1cc(-c3cccnc3F)ccc1Oc1cnc(-c3ccnc(F)c3)cc12` [Example 21-B, (S)-7-(2-Fluoropyridin-3-yl)-3-(2-fluoropyridin-4-yl)-2′-imino-1′-methyl-2′,3′-dihydro-1′H-spiro[chromeno[2,3-c]pyridine-5,4′-pyrimidin]-6′(5′H)-one], the IC50 in assay [2] (setting [4]) came to 99.5 nM. On the same count and under the same terms, the result for `CN1C(=O)[C@]2(N=C1N)c1cc(-c3cccnc3F)ccc1Oc1c(F)cc(-c3ccnc(F)c3)cc12` [Example 39, (4S)-2-amino-4′-fluoro-7′-(2-fluoro-3-pyridinyl)-2′-(2-fluoro-4-pyridinyl)-1-methylspiro[imidazole-4,9′-xanthen]-5(1H)-one] reads 3.1 nM.

These data come from patent US8957083B2, “Spiro-amino-imidazolone and spiro-amino-dihydro-pyrimidinone compounds as beta-secretase modulators and methods of use” (Amgen Inc., priority 2010, dated 2015).
